Results: patent publication US9523100B2, “Pesticidal compositions and related methods” (DOW AGROSCIENCES LLC, priority 2013, dated 2016)

What was measured:
[1] = tested on: Sweetpotato Whitefly-Crawler (WF) (Bemisia tabaci) (BEMITA); test: Insecticidal test for Sweetpotato Whitefly-Crawler (WF) in foliar spray assay on cotton plants; format: in vivo; settings: 216 h, 200 ppm foliar spray on cotton plants, graded after 9 days, Abbott corrected % control, read-out: WF 200 ppm, % Control (or Mortality) rating
Outline: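 Cotton plants carrying 200–400 whitefly eggs sprayed to run-off on both leaf surfaces at 200 ppm (acetone/0.025% Tween 20), four plants per treatment. After 9 days at about 25 °C, live 3rd–4th instar nymphs counted; Abbott-corrected percent control versus solvent check.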

[2] = tested on: Green Peach Aphid (GPA) (Myzus persicae) (MYZUPE); test: Bioassay for Green Peach Aphid (GPA), foliar spray on cabbage seedlings; format: in vivo; settings: 72 h, 200 ppm foliar spray on cabbage seedlings, graded after three days, Abbott corrected % control, read-out: GPA 200 ppm, % Control (or Mortality) rating
Outline: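 Cabbage seedlings infested with 20-50 GPA (wingless adults and nymphs) one day before spraying to runoff with 200 ppm compound; four pots per treatment. Live aphids counted after three days at ~25° C; percent control by Abbott's correction against solvent-sprayed plants.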

| SMILES | mortality at 200 ppm [1] [%] | mortality at 200 ppm [2] [%] |
| --- | --- | --- |
| CCN(C(=O)CCC(=O)NC1CC1C(F)(F)F)c1cn(-c2cccnc2)nc1Cl (centres unmarked) [Compound F54, N1-(3-Chloro-1-(pyridin-3-yl)-1H-pyrazol-4-yl)-N1-ethyl-N4-(2-(trifluoromethyl)cyclopropyl) succinamide] | 80 to 100 | 80 to 100 |
| CCN(C(=O)CCCC1CN(Cc2ccc(C(F)(F)F)cc2)C1=O)c1cn(-c2cccnc2)nc1Cl (centres unmarked) [Compound F127, N-(3-Chloro-1-(pyridin-3-yl)-1H-pyrazol-4-yl)-N-ethyl-4-(2-oxo-1-(4-(trifluoromethyl)benzyl)azetidin-3-yl)butanamide] | 80 to 100 | 0 to 80 |
| CCN(C(=O)CN(C)C(=O)c1ccccc1)c1cn(-c2cccnc2)nc1Cl [Compound F83, N-(2-((3-chloro-1-(pyridin-3-yl)-1H-pyrazol-4-yl)(ethyl)amino)-2-oxoethyl)-N-methylbenzamide] | 0 to 80 | 80 to 100 |
| CCN(C(=O)CN1CCCCCC1=O)c1cn(-c2cccnc2)nc1Cl [Compound F123, N-(3-Chloro-1-(pyridin-3-yl)-1H-pyrazol-4-yl)-N-ethyl-2-(2-oxoazepan-1-yl)acetamide] | 80 to 100 | 0 to 80 |
| CON=C(C)CCC(=O)N(C)c1cn(-c2cccnc2)nc1Cl (mixture of isomers) [Compound F60, (E/Z)-N-(3-Chloro-1-(pyridin-3-yl)-1H-pyrazol-4-yl)-4-(methoxyimino)-N-methylpentanamide] | 80 to 100 | 80 to 100 |
| CCN(C(=O)CC/C(=N/OCC(F)(F)F)c1cccs1)c1cn(-c2cccnc2)nc1Cl [FA35, (E/Z)-N-(3-Chloro-1-(pyridin-3-yl)-1H-pyrazol-4-yl)-N-ethyl-4-(thiophen-2-yl)-4-((2,2,2-trifluoroethoxy)imino)butanamide] | 80 to 100 | 0 to 80 |
| CCN(C(=O)CC/C(=N\OCCCC(F)(F)F)c1cccs1)c1cn(-c2cccnc2)nc1Cl [FA26, (E)-N-(3-Chloro-1-(pyridin-3-yl)-1H-pyrazol-4-yl)-N-ethyl-4-(thiophen-2-yl)-4-((4,4,4-trifluorobutoxy)imino)butanamide] | 80 to 100 | 0 to 80 |
| CCN(C(=O)CCCC(C)=O)c1cn(-c2cncc(F)c2)nc1C [FA70, N-Ethyl-N-(1-(5-fluoropyridin-3-yl)-3-methyl-1H-pyrazol-4-yl)-5-oxohexanamide] | 80 to 100 | 0 to 80 |
| CCN(C(=O)C1CN(C(C)=O)C1)c1cn(-c2cccnc2)nc1Cl [Compound P23, 1-Acetyl-N-(3-chloro-1-(pyridin-3-yl)-1H-pyrazol-4-yl)-N-ethylazetidine-3-carboxamide] | 80 to 100 | 80 to 100 |
| CCN(C(=O)C1CCN(C(C)=O)C1)c1cn(-c2cccnc2)nc1Cl (centres unmarked) [Compound P20, 1-Acetyl-N-(3-chloro-1-(pyridin-3-yl)-1H-pyrazol-4-yl)-N-ethylpyrrolidine-3-carboxamide] | 0 to 80 | 80 to 100 |
| CCN(C(=O)CC/C(=N\OCC1CC(F)(F)C1)c1cccs1)c1cn(-c2cccnc2)nc1Cl [FA30, (E)-N-(3-Chloro-1-(pyridin-3-yl)-1H-pyrazol-4-yl)-4-(((3,3-difluorocyclobutyl)methoxy)imino)-N-ethyl-4-(thiophen-2-yl)butanamide] | 0 to 80 | < 0 |
| CCN(C(=O)C1CCN(C(=O)c2cccnc2)CC1)c1cn(-c2cccnc2)nc1Cl [FA8, N-(3-Chloro-1-(pyridin-3-yl)-1H-pyrazol-4-yl)-N-ethyl-1-nicotinoylpiperidine-4-carboxamide] | 0 to 80 | 80 to 100 |
| CC(=O)N[C@H]1C=C[C@@H](C(=O)N(C)c2cn(-c3cccnc3)nc2Cl)C1 [Compound F24, (1S,4R)-4-acetamido-N-(3-chloro-1-(pyridin-3-yl)-1H-pyrazol-4-yl)-N-methyl-cyclopent-2-enecarboxamide] | 80 to 100 | 80 to 100 |
| CCN(C(=O)CCCN1CCCC1=O)c1cn(-c2cccnc2)nc1Cl [FA33, N-(3-Chloro-1-(pyridin-3-yl)-1H-pyrazol-4-yl)-N-ethyl-4-(2-oxopyrrolidin-1-yl)butanamide] | 80 to 100 | 80 to 100 |
| CCN(C(=O)CC/C(C)=N/Oc1cc(C(F)(F)F)ccn1)c1cn(-c2cccnc2)nc1Cl [Compound F36, (E/Z)-N-(3-Chloro-1-(pyridin-3-yl)-1H-pyrazol-4-yl)-N-ethyl-4-(((4-(trifluoromethyl)pyridin-2-yl)oxy)imino)pentanamide] | 80 to 100 | 80 to 100 |
| CCN(C(=O)C1CCCN(C(=O)CCC(F)(F)F)C1)c1cn(-c2cccnc2)nc1Cl (centres unmarked) [FA43, N-(3-Chloro-1-(pyridin-3-yl)-1H-pyrazol-4-yl)-N-ethyl-1-(4,4,4-trifluorobutanoyl)piperidine-3-carboxamide] | 80 to 100 | 80 to 100 |

| SMILES | mortality at 200 ppm [1] [%] | mortality at 200 ppm [2] [%] |
| --- | --- | --- |
| CCN(C(=O)CNC(=O)C1(C)CC1(F)F)c1cn(-c2cccnc2)nc1Cl (centres unmarked) [Compound F1, N-(2-((3-Chloro-1-(pyridin-3-yl)-1H-pyrazol-4-yl)(ethyl)amino)-2-oxoethyl)-2,2-difluoro-1-methylcyclopropanecarboxamide] | 80 to 100 | 80 to 100 |
| CCN(C(=O)CCNC(=O)CC(F)(F)F)c1cn(-c2cccnc2)nc1Cl [Compound F63, N-(3-((3-Chloro-1-(pyridin-3-yl)-1H-pyrazol-4-yl)(ethyl)amino)-3-oxopropyl)-3,3,3-trifluoropropanamide] | 80 to 100 | 80 to 100 |
| CCN(C(=O)CCC(=O)N1CCCCCC1)c1cn(-c2cccnc2)nc1Cl [Compound F100, 4-(Azepan-1-yl)-N-(3-chloro-1-(pyridin-3-yl)-1H-pyrazol-4-yl)-N-ethyl-4-oxobutanamide] | 80 to 100 | 0 to 80 |
| CCN(C(=O)CCn1ccc(C(C)=O)n1)c1cn(-c2cccnc2)nc1Cl [FA68, 3-(3-Acetyl-1H-pyrazol-1-yl)-N-(3-chloro-1-(pyridin-3-yl)-1H-pyrazol-4-yl)-N-ethylpropanamide] | 80 to 100 | < 0 |
| O=C(CCC(=O)N(CC1CC1)c1cn(-c2cccnc2)nc1Cl)N1CCCC1 [Compound F95, N-(3-Chloro-1-(pyridin-3-yl)-1H-pyrazol-4-yl)-N-(cyclopropylmethyl)-4-oxo-4-(pyrrolidin-1-yl)butanamide] | 0 to 80 | 0 to 80 |
| CN(C(=O)CN1CCCC1=O)c1cn(-c2cccnc2)nc1Cl [Compound F6, N-(3-Chloro-1-(pyridin-3-yl)-1H-pyrazol-4-yl)-N-methyl-2-(2-oxopyrrolidin-1-yl)acetamide] | 80 to 100 | 80 to 100 |
| CCN(C(=O)CNC(=O)CCC(F)(F)F)c1cn(-c2cccnc2)nc1Cl [Compound F97, N-(2-((3-Chloro-1-(pyridin-3-yl)-1H-pyrazol-4-yl)(ethyl)amino)-2-oxoethyl)-4,4,4-trifluorobutanamide] | 80 to 100 | 80 to 100 |
| CN(C)C(=O)CCC(=O)N(C)c1cn(-c2cccnc2)nc1Cl [Compound F25, N1-(3-Chloro-1-(pyridin-3-yl)-1H-pyrazol-4-yl)-N1,N4,N4-trimethyl succinimide] | 80 to 100 | 0 to 80 |
| CCN(C(=O)CCN1CCSC1=O)c1cn(-c2cccnc2)nc1Cl [Compound F88, N-(3-Chloro-1-(pyridin-3-yl)-1H-pyrazol-4-yl)-N-ethyl-3-(2-oxothiazolidin-3-yl)propanamide] | 80 to 100 | 0 to 80 |
| CCN(C(=O)C(C)OC(=O)CC(F)(F)F)c1cn(-c2cccnc2)nc1Cl (centres unmarked) [FA74, 1-((3-Chloro-1-(pyridin-3-yl)-1H-pyrazol-4-yl)(ethyl)amino)-1-oxopropan-2-yl 3,3,3-trifluoropropanoate] | 0 to 80 | 80 to 100 |
| CCN(C(=O)CCC(=O)N(C)CC(F)(F)F)c1cn(-c2cccnc2)nc1Cl [Compound F85, N1-(3-Chloro-1-(pyridin-3-yl)-1H-pyrazol-4-yl)-N1-ethyl-N4-methyl-N4-(2,2,2-trifluoroethyl) succinamide] | 80 to 100 | 80 to 100 |
| CCN(C(=O)C(C)C/C=N\OCCC1CC1(F)F)c1cn(-c2cccnc2)nc1Cl (centres unmarked) [FA59, (Z)-N-(3-Chloro-1-(pyridin-3-yl)-1H-pyrazol-4-yl)-4-((2-(2,2-difluorocyclopropyl)ethoxy)imino)-N-ethyl-2-methylbutanamide] | 80 to 100 | 80 to 100 |
| CCN(C(=O)CC/C(=N/OCCCCC(F)(F)F)c1cccs1)c1cn(-c2cccnc2)nc1Cl [FA29, (Z)-N-(3-Chloro-1-(pyridin-3-yl)-1H-pyrazol-4-yl)-N-ethyl-4-(thiophen-2-yl)-4-(((5,5,5-trifluoropentyl)oxy)imino)butanamide] | 80 to 100 | 0 to 80 |
| CCN(C(=O)CCCC1CN(C)C1=O)c1cn(-c2cccnc2)nc1Cl (centres unmarked) [Compound F53, N-(3-Chloro-1-(pyridin-3-yl)-1H-pyrazol-4-yl)-N-ethyl-4-(1-methyl-2-oxoazetidin-3-yl)butanamide] | 80 to 100 | 80 to 100 |
| CCN(C(=O)CCC1CN(Cc2ccc(C(F)(F)F)cc2)C1=O)c1cn(-c2cccnc2)nc1Cl (centres unmarked) [Compound F129] | 80 to 100 | 0 to 80 |
